Patent US8173657B2, “Imidazoquinoxaline compounds as immunomodulators” (Novartis AG, priority 2006, dated 2012)
pEC50: −log10 of the molar value.

Legend:
Type in all cases: cell-based
[1] = tested on: TNF-α; assay: Compound stimulation and multi-cytokine measurement (TNF-α production); details: cytokine induction; FIG. 2: human PBMC TNF-α production; read-out: EC50 value with respect to agonism of TNF-α
Protocol: Human blood from one or multiple human donors were collected into the BD Vacutainer™ CPT tube with sodium citrate (BD, Franklin Lakes, N.J.), and spun for 20 minutes at 1600 g. After centrifugation, mononuclear cells in the top layer in the tubes were collected and then washed three times with PBS buffer. The washed cells were then reconstituted at a required cell concentration in complete RPMI containing 10% FBS plus 100 units/ml penicillin and 100 ug/ml streptomycin.
Human PBMC (hPBMC) (at 1 million cells/ml) or mouse spleen cells (at 5 million cells/ml) or human monocytic THP-1 cells (at 1 million cells/ml) were mixed with tested compounds such as imidazoquinoxalines at titrated compound concentrations in the complete RPMI medium. After the cell cultures were incubated for 24 hours at 37° C., 5% CO2, the culture supernatant was collected and assayed for the secreted cytokines in the presence of the compounds. […]
Due to the agonist nature of the compounds tested, compound ranking is based on potency in cell-based screens for cytokine induction. Briefly, the EC50 of each compound for a given cytokine is calculated relative to a reference composition (i.e. LPS or other potent immune stimulator). […] Rank-scoring of SMIP potency is calculated by dividing the maximum concentration of cytokine produced by the relative EC50 established for each compound indicated.

[2] = tested on: IL-6; assay: Compound stimulation and multi-cytokine measurement (IL-6 production); details: cytokine induction; cell type not stated at the result; read-out: EC50 value with respect to agonism of IL-6
Protocol: Human PBMC (hPBMC) (at 1 million cells/ml) or mouse spleen cells (at 5 million cells/ml) or human monocytic THP-1 cells (at 1 million cells/ml) were mixed with tested compounds such as imidazoquinoxalines at titrated compound concentrations in the complete RPMI medium. After the cell cultures were incubated for 24 hours at 37° C., 5% CO2, the culture supernatant was collected and assayed for the secreted cytokines in the presence of the compounds. Human or mouse Beadlyte multi-cytokine flex kits (Upstate, Lake Placid, N.Y.) were used to measure the amount of the following cytokines: TNF-α and IL-6 according to the manufacturers instructions.
Due to the agonist nature of the compounds tested, compound ranking is based on potency in cell-based screens for cytokine induction. Briefly, the EC50 of each compound for a given cytokine is calculated relative to a reference composition (i.e. LPS or other potent immune stimulator). This value is then used as the divisor of the maximum level of cytokine produced (pg/ml) in the assay. Five parameter curve fitting of cytokine dose response curves to different SMIPs for the indicated cell populations is used to calculate EC50. Rank-scoring of SMIP potency is calculated by dividing the maximum concentration of cytokine produced by the relative EC50 established for each compound indicated.

[3] = target: T1, human TLR7 (Homo sapiens, UniProt Q9NYK1); assay: TLR signaling, NF-kB luciferase reporter in transfected HEK293 cells; details: HEK293 transfected with hTLR7, NF-kB luciferase; FIG. 1
T1 construct: host or cells: HEK293 cells (ATCC, CRL-1573)
T1 sequence (Q9NYK1 27-1049): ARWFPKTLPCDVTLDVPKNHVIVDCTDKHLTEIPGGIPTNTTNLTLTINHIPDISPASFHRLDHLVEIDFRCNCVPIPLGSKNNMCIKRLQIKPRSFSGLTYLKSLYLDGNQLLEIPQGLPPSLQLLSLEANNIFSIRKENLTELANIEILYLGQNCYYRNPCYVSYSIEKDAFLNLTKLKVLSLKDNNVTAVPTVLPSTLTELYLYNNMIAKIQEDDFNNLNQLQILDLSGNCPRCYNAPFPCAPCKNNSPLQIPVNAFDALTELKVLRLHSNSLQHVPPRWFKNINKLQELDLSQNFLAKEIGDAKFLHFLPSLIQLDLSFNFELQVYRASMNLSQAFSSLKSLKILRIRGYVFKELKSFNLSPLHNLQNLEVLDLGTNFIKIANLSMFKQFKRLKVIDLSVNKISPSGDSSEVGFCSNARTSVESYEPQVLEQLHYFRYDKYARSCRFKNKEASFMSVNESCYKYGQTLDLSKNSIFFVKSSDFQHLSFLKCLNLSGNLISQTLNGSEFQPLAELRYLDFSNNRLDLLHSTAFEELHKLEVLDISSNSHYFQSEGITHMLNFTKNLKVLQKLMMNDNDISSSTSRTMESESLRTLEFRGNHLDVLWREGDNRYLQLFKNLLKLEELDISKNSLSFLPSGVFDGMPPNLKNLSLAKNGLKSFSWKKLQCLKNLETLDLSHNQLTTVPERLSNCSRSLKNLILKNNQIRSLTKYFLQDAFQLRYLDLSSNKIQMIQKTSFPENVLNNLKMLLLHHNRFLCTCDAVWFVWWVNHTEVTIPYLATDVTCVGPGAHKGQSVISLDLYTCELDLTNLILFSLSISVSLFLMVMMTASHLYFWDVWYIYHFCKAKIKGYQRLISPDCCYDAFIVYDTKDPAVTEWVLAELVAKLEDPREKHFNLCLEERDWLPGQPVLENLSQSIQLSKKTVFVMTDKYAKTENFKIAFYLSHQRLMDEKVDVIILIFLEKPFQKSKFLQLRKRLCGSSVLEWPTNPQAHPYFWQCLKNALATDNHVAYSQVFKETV
Protocol: (§1) HEK293 cells (ATCC, CRL-1573) are seeded in a T75 flask at 3×10^6 in 20 ml of DMEM supplemented with 0.1 mM nonessential amino acid, 1 mM sodium pyruvate, 2 mM L-glutamine, penicillin-streptomycin, and 10% FCS. After overnight culturing, the cells are transfected with 1) pNFkB-TA-luciferase reporter (0.4 ug) (BD clontech, Palo Alto, Calif.), and with 2) with pGL4.74 (0.01 ug) that carries a TK promoter, not responsive to NF-kB stimulation, and carries a Renilla luciferase gene, used as an internal control (Promega, Wis.), and 3), separately with a following TLR construct (10 ug): human TLR (hTLR) 7, hTLR8, mouse TLR7 (mTLR7) puno constructs (Invivogene, CA), using Fugene 6 transfection reagent (Roche). The transfected cells after 24 hours transfection are collected and seeded in a 96-well and flat-bottom plate (1×10^4 cell/well) plate, and stimulated with the test compounds at the following concentrations: 30, 10, 3, 1, 0.3, 0.1, 0.03 uM. After overnight compound stimulation, the cells are assayed for expression of fly and renilla luciferases using Dual-Luciferase Reporter Assay System (Promega, WI). NF-kb activation is directly proportional to relative fly luciferase units, which is measured against the internal control renilla luciferase units.

[4] = target: T2, human TLR8 (Homo sapiens, UniProt Q9NR97); assay: as above; details: HEK293 transfected with hTLR8, NF-kB luciferase; FIG. 1
T2 construct: host or cells: HEK293 cells (ATCC, CRL-1573)
T2 sequence (Q9NR97 27-1041): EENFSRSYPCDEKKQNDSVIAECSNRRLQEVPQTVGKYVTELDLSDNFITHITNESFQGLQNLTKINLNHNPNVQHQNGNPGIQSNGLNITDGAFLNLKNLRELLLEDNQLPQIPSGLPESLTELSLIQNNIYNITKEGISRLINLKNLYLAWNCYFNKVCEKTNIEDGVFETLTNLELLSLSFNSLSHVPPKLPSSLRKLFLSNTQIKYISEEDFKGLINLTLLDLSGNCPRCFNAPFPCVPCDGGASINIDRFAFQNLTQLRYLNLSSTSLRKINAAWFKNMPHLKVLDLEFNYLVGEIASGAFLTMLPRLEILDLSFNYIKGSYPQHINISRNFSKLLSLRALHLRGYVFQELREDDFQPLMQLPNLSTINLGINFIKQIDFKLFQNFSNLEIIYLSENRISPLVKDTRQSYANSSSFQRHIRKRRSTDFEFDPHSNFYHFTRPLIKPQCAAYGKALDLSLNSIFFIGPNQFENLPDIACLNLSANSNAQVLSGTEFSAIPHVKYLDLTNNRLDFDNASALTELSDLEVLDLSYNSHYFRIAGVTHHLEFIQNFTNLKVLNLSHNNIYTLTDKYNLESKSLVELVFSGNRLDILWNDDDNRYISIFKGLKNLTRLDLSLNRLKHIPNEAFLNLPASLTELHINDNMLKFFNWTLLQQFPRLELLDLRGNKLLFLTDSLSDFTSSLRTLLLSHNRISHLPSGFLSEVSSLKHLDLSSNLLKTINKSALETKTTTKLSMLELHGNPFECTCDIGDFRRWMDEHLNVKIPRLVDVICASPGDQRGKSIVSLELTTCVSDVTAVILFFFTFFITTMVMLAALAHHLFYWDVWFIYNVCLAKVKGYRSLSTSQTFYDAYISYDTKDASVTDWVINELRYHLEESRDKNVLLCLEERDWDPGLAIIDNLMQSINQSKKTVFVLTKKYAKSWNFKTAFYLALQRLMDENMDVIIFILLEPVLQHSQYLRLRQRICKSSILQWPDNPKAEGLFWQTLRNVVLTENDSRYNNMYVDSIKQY
Protocol: as §1

[5] = target: T3, mouse TLR7 (Mus musculus, UniProt P58681); assay: as above; details: HEK293 transfected with mTLR7, NF-kB luciferase; FIG. 1
T3 construct: host or cells: HEK293 cells (ATCC, CRL-1573)
T3 sequence (P58681 27-1050): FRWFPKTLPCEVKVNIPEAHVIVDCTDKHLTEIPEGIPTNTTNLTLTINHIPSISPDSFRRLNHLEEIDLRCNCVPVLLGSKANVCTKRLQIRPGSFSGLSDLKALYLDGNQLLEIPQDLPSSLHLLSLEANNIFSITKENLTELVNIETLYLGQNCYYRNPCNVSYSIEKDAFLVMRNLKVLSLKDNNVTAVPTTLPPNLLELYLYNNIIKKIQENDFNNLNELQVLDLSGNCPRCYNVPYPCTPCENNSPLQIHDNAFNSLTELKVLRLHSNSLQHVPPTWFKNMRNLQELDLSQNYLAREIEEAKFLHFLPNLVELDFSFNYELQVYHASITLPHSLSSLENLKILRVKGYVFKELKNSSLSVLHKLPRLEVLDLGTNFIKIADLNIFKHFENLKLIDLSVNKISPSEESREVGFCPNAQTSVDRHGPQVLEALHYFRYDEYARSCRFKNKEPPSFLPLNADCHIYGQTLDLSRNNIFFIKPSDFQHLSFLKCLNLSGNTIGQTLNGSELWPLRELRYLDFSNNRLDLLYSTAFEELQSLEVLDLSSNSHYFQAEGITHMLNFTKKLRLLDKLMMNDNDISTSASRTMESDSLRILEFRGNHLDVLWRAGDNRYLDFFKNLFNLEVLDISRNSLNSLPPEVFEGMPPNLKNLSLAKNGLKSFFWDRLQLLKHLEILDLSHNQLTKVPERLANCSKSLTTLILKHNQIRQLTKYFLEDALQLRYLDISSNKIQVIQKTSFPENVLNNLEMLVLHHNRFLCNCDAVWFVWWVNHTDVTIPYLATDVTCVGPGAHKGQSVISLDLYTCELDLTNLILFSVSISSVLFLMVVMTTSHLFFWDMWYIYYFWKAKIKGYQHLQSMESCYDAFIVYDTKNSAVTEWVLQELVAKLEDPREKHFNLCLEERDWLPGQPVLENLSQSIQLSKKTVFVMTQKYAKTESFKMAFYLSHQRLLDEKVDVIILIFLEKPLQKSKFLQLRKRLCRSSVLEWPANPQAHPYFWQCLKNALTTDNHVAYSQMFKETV
Protocol: as §1

SMILES | pEC50 [1] | pEC50 [2] | stimulation of human TLR7 [3] | stimulatory activity with human TLR8 [4] | reactivity for mouse TLR7 [5]
CC(C)Cc1cn2c(n1)c(N)nc1ccccc12 [Example 3, 2-isobutylimidazo[1,2-a]quinoxalin-4-amine] | > 4.82 | > 4.82 | activity for stimulation | stimulatory activity | slightly more reactivity for mouse TLR7 than did the compound of Example 4
CC(C)Cc1nc2c(N)nc3ccccc3n2c1CC(C)(C)O [Example 4, 1-(4-amino-2-isobutylimidazo[1,2-a]quinoxalin-1-yl)-2-methylpropan-2-ol] | > 4.82 | > 4.82 |  | little or no reactivity | 
